This data set relates to blood-brain barrier of stroke rat. The experiment in a line: Blood-brain barrier permeability of stroke rat (middle cerebral artery occlusion model) by Evans blue dye, optical image and IVIS 100 fluorescence imaging of the whole brain. The class given is in vivo, SD (Sprague Dawley) rat. The note with it: for presence of blue dye in brain tissue (optical image, FIG. 2): 30 minutes distribution, transcardial perfusion. The source says: FIG. 1 is a schematic view of an evaluation process of the present invention. As shown, the invention is a process of evaluating the blood-brain barrier permeability of a stroke rat by using fluorescent substance. The process of the invention uses Evans blue dye having spontaneous fluorescence properties, in combination with the use of a new non-invasive in vivo imaging system (IVIS), to obtain fluorescent signals so as to assess the change in the blood-brain barrier permeability of rodents after a cerebral artery stroke model surgery. In operation, an Evans blue dye 11 is injected into a stroke rat 1 of middle cerebral artery occlusion model. A non-invasive in vivo imaging system 12 is used to detect the fluorescence distribution of the whole brain, and obtain images combined by the fluorescence images and optical images for the whole brain tissue. Thereby, the change in the blood-brain barrier permeability of the stroke rat can be completely realized.
FIG. 2 is an optical image of the whole brain tissue after the injection of Evans blue dye according to the invention. FIG. 3 is an integrated image combined the fluorescence images with the optical images by using an IVIS 100 system according to the invention. As shown, in a preferred embedment, the invention uses a SD (Sprague Dawley) rat as the stroke animal model subject to transient bilateral common carotid artery and right middle cerebral artery ligation. After the rat is anesthetized, the surgery procedure is described roughly as follows. The skull of the rat is opened by drilling in order to find the right middle cerebral artery. A 10-0 needle is used to take the right middle cerebral artery and rotate it 90 degrees. It is ensured that the blood cannot flow smoothly under the observation by a microscope. Then, both sides of the common carotid artery are subject to ligation for 90 minutes. After the stitches have been removed, wounds are sutured to allow the rat to be recovered.
Three groups are provided in the experiment, in which a sham group is a rat whose skull is opened without the bilateral common carotid artery and right middle cerebral artery ligation so as to exclude the impact caused by drilling the skull; a control group is the blank rat without any surgery; and a surgery group is a stroke rat whose skull is opened to perform the middle cerebral artery ligation.
Evans blue dye is dissolved in saline and injected intravenously into the rat via its tail 24 hours after surgery. After distribution for 30 minutes, the rat is anesthetized for transcardial perfusion in order to wash away the dye within the blood vessels. The IVIS 100 (Caliper) system is used to detect the fluorescence distribution of the whole brain tissue. The Evans blue dye can be excited by the light of 620 nanometer (nm) wavelengths to emit the light of 680 nm wavelength which can be detected by the IVIS 100 system and further converted into images (as shown in FIG. 3).

Structures are written as SMILES.

As for `Cc1cc(-c2ccc(/N=N/c3ccc4c(S(=O)(=O)O)cc(S(=O)(=O)O)c(N)c4c3O)c(C)c2)ccc1/N=N/c1ccc2c(S(=O)(=O)O)cc(S(=O)(=O)O)c(N)c2c1O` [Evans blue dye, Evans blue], the “fluorescence of whole brain tissue (IVIS 100, excitation 620 nm, emission 680 nm, FIG. 3)” value runs as follows: (control group (blank rat without any surgery)) “fluorescence is not obvious in the brain tissue”; (sham group (skull opened without ligation)) “fluorescence is not obvious in the brain tissue”; (surgery group (stroke rat), 24 hours after stroke surgery) “fluorescence signals are detected in the right brain”. For the same molecule, the “presence of blue dye in brain tissue (optical image, FIG. 2)” value is “no presence of the blue dye in the brain tissue” (control group (blank rat without any surgery), dye i.v. via tail); “no presence of the blue dye in the brain tissue” (sham group (skull opened without ligation), dye i.v. via tail 24 hours after surgery); “leak into the interstitial cells of the right brain” (surgery group (stroke rat), dye i.v. via tail 24 hours after surgery).
